Earlier results as cited in patent US20200061053A1, “PHARMACEUTICAL COMPOSITION AND METHOD FOR ACUTE ON CHRONIC LIVER FAILURE AND RELATED LIVER DISEASES” (priority 2018, published 2020).

Columns and labels:
liver = settings: in vivo
[1] = laboratory test indicators, liver failure patients, TMZ 20 mg three times a day

COc1ccc(CN2CCNCC2)c(OC)c1OC.Cl.Cl [TMZ, 1-[2,3,4-trimethoxybenzyl] piperazine dihydrochloride]
liver toxicity (liver): minimal liver toxicity
30-day immortality rate of liver failure patients (liver failure patients; TMZ tablets 20 mg orally, three times a day, 4-week course, hospitalized liver failure patients, traditional therapeutic approach 44%): approximately 18%
90-day immortality rate of liver failure patients (liver failure patients; TMZ tablets 20 mg orally, three times a day, 4-week course, hospitalized liver failure patients, traditional therapeutic approach 68%): 35%
decrease rate of alanine aminotransferase (liver failure patients; [1]): significantly raise the decrease rate
decrease rate of aspartate transaminase (liver failure patients; [1]): significantly raise the decrease rate
maintaining liver functions and decreasing transaminase levels (alanine aminotransferase, aspartate transaminase) (liver failure patients; patients suffering from liver diseases and conditions, clinical research and trial results): significant effects in maintaining liver functions and decreasing transaminase levels
